Test results as given in patent US20260225997A1, “IONIZABLE AMINE LIPIDS” (Intellia Therapeutics, Inc., priority 2018, published 2026).
Read-outs that look alike come from different tables or passages of the source. Values belong to the molecule of their own block, whether it stands above or below them.

How the values were obtained:
TTR [1] = experiment: TTR editing in mouse liver by NGS after i.v. LNP delivery of Cas9 mRNA and sgRNA; type: in vivo; conditions: CD-1 female mice; for % Editing (TTR, liver): Example 55: 0.1 mpk i.v.
Procedure: Preparations of various LNP compositions were prepared with amine lipids. In assays for percent liver editing in mice, Cas9 mRNA and chemically modified sgRNA were formulated in LNPs, at either a 1:1 w/w ratio or a 1:2 w/w ratio. LNPs are formulated with a composition of a given ionizable lipid (e.g. an amine lipid), DSPC, cholesterol, and PEG-2k-DMG, with a 6.0 N:P ratio.
(§1) CD-1 female mice, ranging from 6-10 weeks of age were used in each study. Animals were weighed and grouped according to body weight for preparing dosing solutions based on group average weight. LNPs were dosed via the lateral tail vein in a volume of 0.2 mL per animal (approximately 10 mL per kilogram body weight). The animals were periodically observed post dose for adverse effects for at least 24 hours post dose. Animals were euthanized at 6 or 7 days by exsanguination via cardiac puncture under isoflurane anesthesia. Blood was collected into serum separator tubes or into tubes containing buffered sodium citrate for plasma as described herein. For studies involving in vivo editing, liver tissue was collected from each animal for DNA extraction and analysis.
Cohorts of mice were measured for liver editing by Next-Generation Sequencing (NGS).
In brief, to quantitatively determine the efficiency of editing at the target location in the genome, genomic DNA was isolated and deep sequencing was utilized to identify the presence of insertions and deletions introduced by gene editing.
PCR primers were designed around the target site (e.g., B2M), and the genomic area of interest was amplified. Additional PCR was performed according to the manufacturer's protocols (Illumina) to add the necessary chemistry for sequencing. The amplicons were sequenced on an Illumina MiSeq instrument. The reads were aligned to the […] after eliminating those having low quality scores. The resulting files containing the reads were mapped to the reference genome (BAM files), where reads that overlapped the target region of interest were selected and the number of wild type reads versus the number of reads which contain an insertion, substitution, or deletion was calculated.
The editing percentage (e.g., the “editing efficiency” or “percent editing”) is defined as the total number of sequence reads with insertions or deletions over the total number of sequence reads, including wild type.
CD-1 female mice were dosed i.v. at 0.1 mpk or 0.3 mpk. At 6 days post-dose, animals were sacrificed. For animals dosed with G282 targeting TTR, blood and the liver were collected and serum TTR and editing were measured. For animals dosed with G650 targeting B2M, liver was collected and editing was measured.

[2] = pKa measurement of unformulated amine lipid (fluorescence, method of Jayaraman et al.); type: physicochemical; conditions: 100 μM in 0.1 M phosphate buffer pH 4.5-9.0
Procedure: The pKa of each amine lipid was determined according to the method in Jayaraman, et al. (Angewandte Chemie, 2012) with the following adaptations. […] Lipid was diluted to 100 μM in 0.1 M phosphate buffer (Boston Bioproducts) where the pH ranged from 4.5-9.0. Fluorescence intensity was measured using excitation and emission wavelengths of 321 nm and 448 nm.

TTR [3] = experiment: Transthyretin (TTR) ELISA analysis of mouse serum after LNP dosing; type: in vivo; conditions: for response vs control in vivo at 0.1 mg/kg / response vs control in vivo at 0.03 mg/kg: read-out: Serum TTR % TSS
Procedure: as §1
CD-1 female mice were dosed i.v. at 0.1 mpk or 0.3 mpk. […] For animals dosed with G282 targeting TTR, blood and the liver were collected and serum TTR and editing were measured. For animals dosed with G650 targeting B2M, liver was collected and editing was measured.
Blood was collected and the serum was isolated as indicated. The total mouse TTR serum levels were determined using a Mouse Prealbumin (Transthyretin) ELISA Kit (Aviva Systems Biology, Cat. OKIA00111). Briefly, sera were serial diluted with kit sample diluent to a final dilution of 10,000-fold for 0.1 mpk dose and 2,500-fold for 0.3 mpk. This diluted sample was then added to the ELISA plates and the assay was then carried out according to directions.

[4] = Example 55: 0.1 mpk i.v., 7 days post-dose, G282 1:1
[5] = Example 61: 0.1 mpk i.v., 7 days post-dose, G282 1:1
[6] = Mus musculus, iv, 168 h, Example 61: 0.1 mpk i.v., 7 days post-dose, G282 1:1
[7] = Example 59: 0.1 mpk i.v., 7 days post-dose, G282 1:1
[8] = Example 62: 0.03 mpk i.v., 7 days post-dose, G282 1:2
[9] = Example 62: 0.1 mpk i.v., 7 days post-dose, G282 1:2
[10] = Example 64: Dose 0.03 mpk (table) i.v., 7 days post-dose, G282 1:1
[11] = Mus musculus, iv, 168 h, Example 62: 0.03 mpk i.v., 7 days post-dose, G282 1:2
[12] = Mus musculus, iv, 168 h, Example 62: 0.1 mpk i.v., 7 days post-dose, G282 1:2
[13] = Example 58: 0.1 mpk i.v., 6 days post-dose, G282 1:1
[14] = Mus musculus, iv, 144 h, Example 58: 0.1 mpk i.v., 6 days post-dose, G282 1:1

SMILES: CCCCCCCCCOC(=O)CCCCCCCN(CCO)CCCCCCCC(OCCCCCCC)OCCCCCCC [Compound 7, nonyl 8-((8,8-bis(heptyloxy)octyl)(2-hydroxyethyl)amino)octanoate]
% Editing (TTR, liver) (TTR [1]; 7 days post-dose, G282 1:1): 50%
pKa [2]: 6.16
Serum TTR (TTR [3]; [4]): 234 µg/mL
Serum TTR (% TSS) (TTR [3]; [4]): 21 % TSS

SMILES: CCCCCCCCCOC(=O)CCCCCCCN(CCO)CCCCCCCC(OCCCCCC)OCCCCCC [Compound 8, nonyl 8-((8,8-bis(hexyloxy)octyl)(2-hydroxyethyl)amino)octanoate]
% Editing (TTR, liver) (TTR [1]; 7 days post-dose, G282 1:1): 43%
pKa [2]: 6.37
Serum TTR (TTR [3]; [4]): 387 µg/mL
Serum TTR (% TSS) (TTR [3]; [4]): 34 % TSS

SMILES: CCCCCCCCCOC(=O)CCCCCCCN(CCO)CCCCCCCCC(OCCCCCCCC)OCCCCCCCC [Compound 9, nonyl 8-((9,9-bis(octyloxy)nonyl)(2-hydroxyethyl)amino octanoate]
Editing Mean % Indel (TTR [1]; [5]): 52.1%
pKa [2]: 6.12
Serum TTR (TTR [3]; [5]): 218 µg/mL
response vs control in vivo at 0.1 mg/kg (TTR [3]; [6]): 17%

SMILES: CCCCCCCCCOC(=O)CCCCCCCN(CCO)CCCCCCC(OCCCCCCCC)OCCCCCCCC [Compound 10, nonyl 8-((7,7-bis(octyloxy)heptyl)(2-hydroxyethyl)amino)octanoate]
% Editing (TTR, liver) (TTR [1]; 7 days post-dose, G282 1:1): 50%
Editing Mean % Indel (TTR [1]; [7]): 60.1%
Editing Mean % Indel (TTR [1]; [5]): 47.2%
Editing Mean % Indel (TTR [1]; [8]): 15.6%
Editing Mean % Indel (TTR [1]; [9]): 51.3%
Editing Mean % Indel (TTR [1]; [10]): 27.2%
pKa [2]: 6.05
Serum TTR (TTR [3]; [4]): 206 µg/mL
Serum TTR (% TSS) (TTR [3]; [4]): 18 % TSS
Serum TTR (TTR [3]; [7]): 80 µg/mL
Serum TTR (TTR [3]; [5]): 330 µg/mL
Serum TTR (TTR [3]; [8]): 424 µg/mL
Serum TTR (TTR [3]; [9]): 179 µg/mL
Serum TTR (TTR [3]; [10]): 409.2 µg/mL
response vs control in vivo at 0.1 mg/kg (TTR [3]; Mus musculus, iv, 168 h, Example 59: 0.1 mpk i.v., 7 days post-dose, G282 1:1): 9%
response vs control in vivo at 0.1 mg/kg (TTR [3]; [6]): 26%
response vs control in vivo at 0.03 mg/kg (TTR [3]; [11]): 67%
response vs control in vivo at 0.1 mg/kg (TTR [3]; [12]): 28%
inhibition in vivo at 0.03 mg/kg (TTR [3]; Mus musculus, iv, 168 h, Example 64: Dose 0.03 mpk (table) i.v., 7 days post-dose, G282 1:1, read-out: Serum TTR (% KD)): 28.5%

SMILES: CCCCCCCCCCOC(=O)CCCCCCN(CCO)CCCCCCCC(OCCCCCCCC)OCCCCCCCC [Compound 12, decyl 7-((8,8-bis(octyloxy)octyl)(2-hydroxyethyl)amino)heptanoate]
Editing Mean % Indel (TTR [1]; [13]): 33.0%
pKa [2]: 6.38
Serum TTR (TTR [3]; [13]): 490 µg/mL
response vs control in vivo at 0.1 mg/kg (TTR [3]; [14]): 50%

SMILES: CCCCCCCCCCCCOC(=O)CCCCN(CCO)CCCCCCCC(OCCCCCCCC)OCCCCCCCC [Compound 14, dodecyl 5-((8,8-bis(octyloxy)octyl)(2-hydroxyethyl)amino)pentanoate]
Editing Mean % Indel (TTR [1]; [13]): 12.1%
pKa [2]: 6.46
Serum TTR (TTR [3]; [13]): 928 µg/mL
response vs control in vivo at 0.1 mg/kg (TTR [3]; [14]): 94%

SMILES: CCCCCCCCOC(CCCCCCCN(CCO)CCCCCCCC(=O)OCCCCCCC)OCCCCCCCC [Compound 15, heptyl 8-((8,8-bis(octyloxy)octyl)(2-hydroxyethyl)amino)octanoate]
Editing Mean % Indel (TTR [1]; [13]): 50.3%
Editing Mean % Indel (TTR [1]; [8]): 16.4%
Editing Mean % Indel (TTR [1]; [9]): 57.4%
pKa [2]: 6.34
Serum TTR (TTR [3]; [13]): 179 µg/mL
Serum TTR (TTR [3]; [8]): 548 µg/mL
Serum TTR (TTR [3]; [9]): 180 µg/mL
response vs control in vivo at 0.1 mg/kg (TTR [3]; [14]): 18%
response vs control in vivo at 0.03 mg/kg (TTR [3]; [11]): 86%
response vs control in vivo at 0.1 mg/kg (TTR [3]; [12]): 28%

SMILES: CCCCCCCCOC(CCCCCCCN(CCO)CCCCCCCC(=O)OC(C)CCCCCCCC)OCCCCCCCC (stereo not drawn) [Compound 21, decan-2-yl 8-((8,8-bis(octyloxy)octyl)(2-hydroxyethyl)amino)octanoate]
pKa [2]: 5.99

SMILES: CCCCCCCCOC(CCCCCCCN(CCO)CCCCCCCCCCOC(=O)CCCCCC)OCCCCCCCC [Compound 24, 10-((8,8-bis(octyloxy)octyl)(2-hydroxyethyl)amino)decyl heptanoate]
pKa [2]: 5.95

SMILES: CCCCCCCCOC(CCCCCCN(CCO)CCCCCCCC(=O)OCCCCCCC)OCCCCCCCC [Compound 31, heptyl 8-((7,7-bis(octyloxy)heptyl)(2-hydroxyethyl)amino)octanoate]
pKa [2]: 6.47

SMILES: CCCCCCCCOC(CCCCCCN(CCO)CCCCCCCC(=O)OC(C)CCCCCC)OCCCCCCCC (stereo not drawn) [Compound 32, octan-2-yl 8-((7,7-bis(octyloxy)heptyl)(2-hydroxyethyl)amino)octanoate]
pKa [2]: 6.36

SMILES: CCCCCCCCCOC(=O)CCCCCCCN(CCCCCCC(OCCCCCCCC)OCCCCCCCC)CCOC(C)=O [Compound 49, nonyl 8-((2-acetoxyethyl)(7,7-bis(octyloxy)heptyl)amino)octanoate]
pKa [2]: 5.32

SMILES: CCCCCCCCCOC(=O)CCCCCCCN(CCCCCCC(OCCCCCCCC)OCCCCCCCC)CCCOC(C)=O [Compound 50, nonyl 8-((3-acetoxypropyl)(7,7-bis(octyloxy)heptyl)amino)octanoate]
pKa [2]: 5.45

Further lines, results first:

pKa [2]: 6.33
SMILES: CCCCCCCCOC(CCCCCCN(CCO)CCCCCCCC(=O)OC(CC)CCCCCC)OCCCCCCCC (stereo not drawn) [Compound 33, nonan-3-yl 8-((7,7-bis(octyloxy)heptyl)(2-hydroxyethyl)amino)octanoate]

pKa [2]: 6.47
SMILES: CCCCCCCCOC(CCCCCCN(CCO)CCCCCCCC(=O)OCCCCC)OCCCCCCCC [Compound 34, pentyl 8-((7,7-bis(octyloxy)heptyl)(2-hydroxyethyl)amino)octanoate]

pKa [2]: 6.37
SMILES: CCCCCCCCOC(CCCCCCN(CCO)CCCCCCCC(=O)OC(CC)CCCC)OCCCCCCCC (stereo not drawn) [Compound 35, heptan-3-yl 8-((7,7-bis(octyloxy)heptyl)(2-hydroxyethyl)amino)octanoate]

pKa [2]: 7.2
SMILES: CCCCCCCCCOC(=O)CCCCCCCN(CCN)CCCCCCC(OCCCCCCCC)OCCCCCCCC [Compound 36, nonyl 8-((2-aminoethyl)(7,7-bis(octyloxy)heptyl)amino)octanoate]

pKa [2]: 6.3
SMILES: CCCCCCCCCOC(=O)CCCCCCCN(CCCO)CCCCCCC(OCCCCCCCC)OCCCCCCCC [Compound 37, nonyl 8-((7,7-bis(octyloxy)heptyl)(3-hydroxypropyl)amino)octanoate]

pKa [2]: 7.81
SMILES: CCCCCCCCCOC(=O)CCCCCCCN(CCCN)CCCCCCC(OCCCCCCCC)OCCCCCCCC [Compound 38, nonyl 8-((3-aminopropyl)(7,7-bis(octyloxy)heptyl)amino)octanoate]

pKa [2]: 6.93
SMILES: CCCCCCCCCOC(=O)CCCCCCCN(CCCCCCC(OCCCCCCCC)OCCCCCCCC)CCNS(C)(=O)=O [Compound 47, nonyl 8-((7,7-bis(octyloxy)heptyl)(2-(methylsulfonamido)ethyl)amino)octanoate]

pKa [2]: 7.61
SMILES: CCCCCCCCCOC(=O)CCCCCCCN(CCCCCCC(OCCCCCCCC)OCCCCCCCC)CCCNS(C)(=O)=O [Compound 48, nonyl 8-((7,7-bis(octyloxy)heptyl)(3-(methylsulfonamido)propyl)amino)octanoate]
